The source of these data is patent US9944607B2, “Thiohydantoin derivatives and uses thereof” (Whitehead Institute for Biomedical Research, priority 2012, dated 2018).

A short description of one data set: PBS stability. The class given is physicochemical. Particulars: PBS pH 7.4, 23° C. Here is the method:
Stability was determined in the presence of PBS pH 7.4 with 0.1% DMSO. […] One plate was removed at each time point (0, 2, 4, 8, 24, and 48 hours). […] Additionally, to the remaining material at each time point, acetonitrile was added to force dissolution of compound (to test for recovery of compound). An aliquot of this was also analyzed by UPLC-MS.

In data set [1] the test system is mitochondrial membrane potential of S. cerevisiae. Kind of data set: Secondary mitochondrial disruption assay (JC-1 dye, flow cytometry). The class given is cell-based, Saccharomyces cerevisiae. Particulars: living S. cerevisiae treated with 1 μM compound; AIDs 624062, 624068. Here is the method:
Procedures • Use a Thermo Combi nL to dispense 20 μL/well of assay media into all wells. • Add 2 μL of Amphotericin B to control wells. • Pin 100 nL of test compound from compound plates into assay plates using a CyBi-Well pin tool. • Dispense 20 μL/well of culture into the assay media in all wells. • Incubate the plates in a humidified (90% humidity) Liconic incubator at 37° C. without agitation for 48 hours. • Shake plates briefly. • Read OD600 of wells on a standard plate reader as measure of relative fungal growth. Envision (Perkin Elmer) plate reader settings: Ex Photometric 600, Top read. 4.5. Secondary Mitochondrial Disruption Assay (AID No. 624062 and 624068)
The fluorescent dye JC-1 was used to quantify the ability of compounds to disrupt the mitochondrial membrane potential of fungi. Mitochondrial membrane depolarization is indicated by a decrease in the yellow/green fluorescence intensity ratio. This is a non-gating, binning assay that establishes whether inhibition of fungal growth in glycerol results from direct compromise of mitochondrial function or alternative components of fungal respiratory metabolism. Probes that disrupt mitochondrial function as well as those that perturb other metabolic components are desirable. […]
Additionally, direct impairment of mitochondrial function in C. glabrata and S. cerevisiae was assessed using a fluorescence assay.

The next data set has as its system Candida albicans CaCi-2. Kind of data set: Broth microdilution growth inhibition of C. albicans CaCi-2 in presence or absence of fluconazole. It is filed as cell-based. Particulars: CACI2, RPMI media. Here is the method: Growth inhibition of I-B-4 (ML316) against Candida albicans CaCi-2 in the presence or absence of fluconazole was assessed using the broth microdilution method with RPMI media.
On the technique in general: In broth dilution the organism is exposed to a series of concentrations in liquid medium.

Data set [2] deals with Candida albicans strain SC5314. Kind of data set: Colony counts over time, C. albicans SC5314 in RPMI (FIG. 14). It is filed as cell-based. Particulars: colonies counted after 24 and 48 hours. Here is the method: Compound I-B-4 (ML316) was studied in fluconazole-sensitive Candida albicans strain SC5314. The SC5314 strain was inoculated into RPMI media at 10^3 CFU/mL in the presence or absence of 5 μM I-B-4 (ML316) and 32 ug/mL fluconazole. Colonies were plated from the cultures after 24 and 48 hours and counted.

In data set [3] the target is S. cerevisiae cytochrome bc1 complex (Saccharomyces cerevisiae, UniProt P00163). Particulars: cited from earlier work.
The test system of another data set is HeLa cells. Particulars: Hayakawa et al. 1971, cited from earlier work.

Read-outs that look alike come from different tables or passages of the source.

As a reminder, the IC50 is the point on the concentration scale where inhibition reaches its midpoint. As to `CCOC(=O)N1C(=O)C2(CCCCC2)N(c2ccc(F)cc2)C1=S` [CID 56604860, Ethyl 1-(4-fluorophenyl)-4-oxo-2-thioxo-1,3-diazaspiro[4.5]decane-3-carboxylate], in the data set “PBS stability”, the “Stability in PBS solution, % remaining after a 48-hour incubation” value is listed as above 60%. Further, the “Depolarization of the mitochondrial membrane (JC-1 dye)” value in data set [1] was “depolarization of the mitochondrial membrane does not occur”. Also, the IC50 is 0.12 µM in the data set on Candida albicans CaCi-2 (absence of fluconazole (FIG. 8), read-out: IC50 against C. albicans CaCi-2 growth, compound alone) and 0.01 µM in the data set on Candida albicans CaCi-2 (presence of fluconazole (FIG. 8), read-out: IC50 against C. albicans CaCi-2 growth, with FCZ). Besides, in data set [2] (5 μM I-B-4), the “Cytotoxicity to fluconazole-sensitive C. albicans SC5314, compound alone” value is on record as “cytotoxic”. The “Cytotoxicity to fluconazole-sensitive C. albicans SC5314, combination with fluconazole (FCZ)” value in data set [2] (5 μM I-B-4 and 32 ug/mL fluconazole) was “cytotoxic”.

With `C/C=C/C1[C@H]2C[C@@H](C)CC[C@@H]2C(C)=C[C@H]1C(=O)c1c(O)c(-c2ccc(O)cc2)c[nH]c1=O` (stereo partly shown) [ilicicolin H, reference compound], the “Selectivity for S. cerevisiae (fungal) bc1 complex over bovine bc1 complex” value in data set [3] (biochemical assays with purified proteins, literature) is given as 100 fold. Also, in data set [3] (read-out: IC50, purified S. cerevisiae cytochrome bc1 complex, studies by Trumpower et al.), the IC50 is 0.003 µM. Also, the entries for the “MIC against HeLa cells” value with HeLa cells and in the data set with HeLa cells (same value converted) were 2 µg/mL and 4.6 µM, respectively.
